Assay results reported in ChEMBL document CHEMBL4251691, “Thiazole Derivatives as Inhibitors for the Treatment of Cancer Cells Resistant” (ACS Med Chem Lett, 2018).

What follows are molecules tested against L-lactate dehydrogenase (Homo sapiens, UniProt V9HWB9) (assay: Inhibition of LDH (unknown origin) assessed as reduction in lactate production by cell-based assay).

IC50, < 1000 nM:
CC(=O)c1cc(-c2nn(-c3nc(C(=O)O)cs3)c(CC3CC3)c2Cc2ccc(S(N)(=O)=O)c(F)c2)ccc1F, NS(=O)(=O)c1ccc(Cc2c(-c3ccc(F)c(C4=CCC(F)(F)CC4)c3)nn(-c3nc(C(=O)O)cs3)c2CC2CC2)cc1F, CC1CC=C(c2cc(-c3nn(-c4nc(C(=O)O)cs4)c(CC4CC4)c3Cc3ccc(S(N)(=O)=O)c(F)c3)ccc2F)CC1 (stereo unspecified), Cc1ccc(-c2cc(-c3nn(-c4nc(C(=O)O)cs4)c(CC4CC4)c3Cc3ccc(S(N)(=O)=O)c(F)c3)ccc2F)cc1F, CC1CCCC=C1c1cc(-c2nn(-c3nc(C(=O)O)cs3)c(CC3CC3)c2Cc2ccc(S(N)(=O)=O)c(F)c2)ccc1F (stereo unspecified), Cc1ccc(/C=C/c2cccc(-c3nn(-c4nc(C(=O)O)cs4)c(CC4CC4)c3Cc3ccc(S(N)(=O)=O)c(F)c3)c2)s1
